Measured values taken from patent publication US20250122183A1 (Pfizer Inc., priority 2023, published 2025).

Columns and labels:
[1] = target: KAT7+JADE1+EAF6+ING5 4 protein complex (Homo sapiens (Human), UniProt O95251); experiment: KAT7 JADE1 assay (SAMDI-MS acetylation of H3 1-21 peptide); assay type: biochemical; conditions: Morrison equation fit; replicate number in parentheses; read-out: KAT7 JADE1 Ki (nM) (replicate number)
KAT6A Full length enzyme = KAT6A Full length enzyme (Homo sapiens (Human), UniProt Q92794); experiment: KAT6A assay (SAMDI-MS acetylation of H3 1-21 peptide); assay type: biochemical; conditions: Morrison equation fit; replicate number in parentheses; read-out: KAT6A Ki (nM) (replicate number)
Sequence of KAT6A Full length enzyme (Q92794 other isoform, or with tags, fused parts or gaps): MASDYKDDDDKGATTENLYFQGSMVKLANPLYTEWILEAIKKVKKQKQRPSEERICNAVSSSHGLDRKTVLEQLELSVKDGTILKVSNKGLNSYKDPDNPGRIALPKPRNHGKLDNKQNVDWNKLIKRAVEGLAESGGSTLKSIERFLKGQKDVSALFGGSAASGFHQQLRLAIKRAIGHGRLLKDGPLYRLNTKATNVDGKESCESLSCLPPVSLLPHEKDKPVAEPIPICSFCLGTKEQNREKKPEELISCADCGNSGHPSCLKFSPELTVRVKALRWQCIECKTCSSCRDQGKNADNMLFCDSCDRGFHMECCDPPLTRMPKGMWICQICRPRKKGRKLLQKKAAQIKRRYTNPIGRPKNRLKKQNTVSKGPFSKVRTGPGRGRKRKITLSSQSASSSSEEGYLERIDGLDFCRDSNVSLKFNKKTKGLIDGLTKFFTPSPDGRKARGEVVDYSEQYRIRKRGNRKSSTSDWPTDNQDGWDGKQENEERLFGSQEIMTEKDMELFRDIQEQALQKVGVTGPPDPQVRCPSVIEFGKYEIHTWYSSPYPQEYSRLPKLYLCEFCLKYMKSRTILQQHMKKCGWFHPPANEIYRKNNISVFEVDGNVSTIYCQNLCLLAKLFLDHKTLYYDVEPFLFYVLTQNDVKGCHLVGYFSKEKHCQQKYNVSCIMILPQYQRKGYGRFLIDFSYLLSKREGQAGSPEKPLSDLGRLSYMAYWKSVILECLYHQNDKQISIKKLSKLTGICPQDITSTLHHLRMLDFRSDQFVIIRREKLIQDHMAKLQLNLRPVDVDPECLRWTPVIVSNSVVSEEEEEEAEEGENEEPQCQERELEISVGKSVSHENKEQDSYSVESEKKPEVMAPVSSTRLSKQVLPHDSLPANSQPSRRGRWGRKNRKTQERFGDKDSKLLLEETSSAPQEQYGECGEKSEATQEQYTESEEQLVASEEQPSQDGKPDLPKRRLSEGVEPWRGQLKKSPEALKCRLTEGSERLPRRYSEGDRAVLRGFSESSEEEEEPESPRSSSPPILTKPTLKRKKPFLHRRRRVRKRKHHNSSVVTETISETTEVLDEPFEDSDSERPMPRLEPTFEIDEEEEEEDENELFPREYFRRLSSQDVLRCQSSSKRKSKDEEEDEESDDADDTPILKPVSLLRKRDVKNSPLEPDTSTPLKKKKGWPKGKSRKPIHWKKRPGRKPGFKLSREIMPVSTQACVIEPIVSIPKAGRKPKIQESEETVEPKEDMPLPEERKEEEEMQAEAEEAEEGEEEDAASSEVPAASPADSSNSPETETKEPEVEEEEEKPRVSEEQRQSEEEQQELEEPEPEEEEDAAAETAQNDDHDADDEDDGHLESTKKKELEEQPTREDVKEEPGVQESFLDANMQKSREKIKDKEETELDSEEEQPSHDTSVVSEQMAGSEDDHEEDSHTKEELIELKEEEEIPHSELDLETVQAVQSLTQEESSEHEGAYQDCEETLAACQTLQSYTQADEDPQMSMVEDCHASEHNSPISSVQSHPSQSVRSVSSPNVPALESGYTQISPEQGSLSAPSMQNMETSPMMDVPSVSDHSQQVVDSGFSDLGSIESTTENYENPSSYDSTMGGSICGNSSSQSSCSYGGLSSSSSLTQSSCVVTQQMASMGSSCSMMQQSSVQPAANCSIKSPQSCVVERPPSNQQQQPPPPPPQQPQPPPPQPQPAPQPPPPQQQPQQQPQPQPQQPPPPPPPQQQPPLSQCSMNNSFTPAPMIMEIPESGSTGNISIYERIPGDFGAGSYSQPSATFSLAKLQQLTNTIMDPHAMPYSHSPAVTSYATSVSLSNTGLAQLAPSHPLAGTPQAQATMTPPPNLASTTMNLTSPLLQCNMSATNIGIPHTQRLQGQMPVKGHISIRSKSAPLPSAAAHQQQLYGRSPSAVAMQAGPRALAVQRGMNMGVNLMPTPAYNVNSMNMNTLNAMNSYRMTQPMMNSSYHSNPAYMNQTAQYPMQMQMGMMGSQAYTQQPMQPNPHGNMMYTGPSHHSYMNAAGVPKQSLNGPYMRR

Row | SMILES | Ki [1] | Ki (KAT6A Full length enzyme)
1 | COc1cc2c(NS(=O)(=O)c3c(OC)cccc3OC)noc2cc1Nc1[nH]nc(C)c1C#N [Example 45, N-{6-[(4-cyano-3-methyl-1H-pyrazol-5-yl)amino]-5-methoxy-1,2-benzoxazol-3-yl}-2,6-dimethoxybenzene-1-sulfonamide] | 804 nM | 2.3 nM
2 | COc1cc2c(NS(=O)(=O)c3c(OC)cccc3OC)noc2cc1Nc1[nH]nc2c1CNC2 [Example 49, 2,6-dimethoxy-N-{5-methoxy-6-[(2,4,5,6-tetrahydropyrrolo[3,4-c]pyrazol-3-yl)amino]-1,2-benzoxazol-3-yl}benzene-1-sulfonamide] | > 2340 nM | 4 nM
3 | COc1cc2c(NS(=O)(=O)c3c(OC)cccc3OC)noc2cc1Nc1cc(C(C)C)nn1C [Example 51, 2,6-dimethoxy-N-(5-methoxy-6-{[1-methyl-3-(propan-2-yl)-1H-pyrazol-5-yl]amino}-1,2-benzoxazol-3-yl)benzene-1-sulfonamide] | > 4990 nM | > 377 nM
4 | COc1cc2c(NS(=O)(=O)c3c(OC)cccc3OC)noc2cc1Nc1cc(C)nn1C(C)C [Example 52, 2,6-dimethoxy-N-(5-methoxy-6-{[3-methyl-1-(propan-2-yl)-1H-pyrazol-5-yl]amino}-1,2-benzoxazol-3-yl)benzene-1-sulfonamide] | > 12500 nM | 73.5 nM
5 | COc1cc2c(NS(=O)(=O)c3c(OC)cccc3OC)noc2cc1Nc1ccn(C(C)C)n1 [Example 53, 2,6-dimethoxy-N-(5-methoxy-6-{[1-(propan-2-yl)-1H-pyrazol-3-yl]amino}-1,2-benzoxazol-3-yl)benzene-1-sulfonamide] | 441 nM | 19.8 nM
6 | COc1cc2c(NS(=O)(=O)c3c(OC)cccc3OC)noc2cc1Nc1cc(C(=O)O)n[nH]1 [Example 54, 5-({3-[(2,6-dimethoxybenzene-1-sulfonyl)amino]-5-methoxy-1,2-benzoxazol-6-yl}amino)-1H-pyrazole-3-carboxylic acid] | > 2340 nM | 2 nM
7 | COc1cc2c(NS(=O)(=O)c3c(OC)cccc3OC)noc2cc1Nc1[nH]nc(C)c1C(N)=O [Example 57, 5-({3-[(2,6-dimethoxybenzene-1-sulfonyl)amino]-5-methoxy-1,2-benzoxazol-6-yl}amino)-3-methyl-1H-pyrazole-4-carboxamide] | > 2340 nM | 6.2 nM
8 | COc1cc2c(NS(=O)(=O)c3c(OC)cccc3OC)noc2cc1Nc1c(C(N)=O)c(C)nn1C [Example 58, 5-({3-[(2,6-dimethoxybenzene-1-sulfonyl)amino]-5-methoxy-1,2-benzoxazol-6-yl}amino)-1,3-dimethyl-1H-pyrazole-4-carboxamide] | > 12500 nM | 5.7 nM
9 | COCc1cc(Nc2cc3onc(NS(=O)(=O)c4c(OC)cccc4OC)c3cc2OC)n(C)n1 [Example 60, 2,6-dimethoxy-N-(5-methoxy-6-{[3-(methoxymethyl)-1-methyl-1H-pyrazol-5-yl]amino}-1,2-benzoxazol-3-yl)benzene-1-sulfonamide] | > 12500 nM | > 377 nM
10 | COc1cc2c(NS(=O)(=O)c3c(OC)cccc3OC)noc2cc1Nc1nc[nH]n1 [Example 61, 2,6-dimethoxy-N-{5-methoxy-6-[(1H-1,2,4-triazol-3-yl)amino]-1,2-benzoxazol-3-yl}benzene-1-sulfonamide] | 54.7 nM | 0.2 nM
11 | COCc1cc(Nc2cc3onc(NS(=O)(=O)c4c(OC)cccc4OC)c3cc2OC)[nH]n1 [Example 91, 2,6-dimethoxy-N-(5-methoxy-6-{[3-(methoxymethyl)-1H-pyrazol-5-yl]amino}-1,2-benzoxazol-3-yl)benzene-1-sulfonamide] | 802 nM | 2.3 nM
12 | COc1cc2c(NS(=O)(=O)c3c(OC)cccc3OC)noc2cc1Nc1cc(C(F)(F)F)n[nH]1 [Example 93, 2,6-dimethoxy-N-(5-methoxy-6-{[3-(trifluoromethyl)-1H-pyrazol-5-yl]amino}-1,2-benzoxazol-3-yl)benzene-1-sulfonamide] | 729 nM | 31.2 nM
13 | CCOc1cc(C)c(F)cc1S(=O)(=O)Nc1noc2cc(Nc3n[nH]cc3F)c(OC)cc12 [Example 139, 2-Ethoxy-5-fluoro-N-{6-[(4-fluoro-1 H-pyrazol-3-yl)amino]-5-methoxy-1,2-benzoxazol-3-yl}-4-methylbenzene-1-sulfonamide] | 128 nM | 0.1 nM
14 | COc1cc2c(NS(=O)(=O)c3c(OC)cc(C4CN(C)CCC4(F)F)cc3OC)noc2cc1Nc1cc(C2CC2)[nH]n1 (centres unmarked) [Example 177, N-{6-[(5-cyclopropyl-1 H-pyrazol-3-yl)amino]-5-methoxy-1,2-benzoxazol-3-yl}-4-[4,4-difluoro-1-(^2H3)methylpiperidin-3-yl]-2,6-dimethoxybenzene-1-sulfonamide] | 0.2 nM | 0.1 nM
15 | COc1cc2c(NS(=O)(=O)c3c(OC)cc(C4C[C@H](F)CN4C)cc3OC)noc2cc1Nc1cc(C2CC2)n[nH]1 (stereo partly drawn) [Example 181, N-{6-[(3-cyclopropyl-1 H-pyrazol-5-yl)amino]-5-methoxy-1,2-benzoxazol-3-yl}-4-[(4S)-4-fluoro-1-methylpyrrolidin-2-yl]-2,6-dimethoxybenzene-1-sulfonamide] | 6.2 nM | 2 nM
16 | COc1cc2c(NS(=O)(=O)c3c(OC)cc(C4C[C@H](C)CN4C)cc3OC)noc2cc1Nc1cc(C2CC2)n[nH]1 (stereo partly drawn) [Example 182, N-{6-[(3-cyclopropyl-1H-pyrazol-5-yl)amino]-5-methoxy-1,2-benzoxazol-3-yl}-4-[(4S)-1,4-dimethylpyrrolidin-2-yl]-2,6-dimethoxybenzene-1-sulfonamide] | 6.4 nM | 0.8 nM
17 | COc1cc2c(NS(=O)(=O)c3c(OC)cc([C@@H]4CCCN4C)cc3OC)noc2cc1Nc1cc(C2CC2)n[nH]1 [Example 189] | 20.8 nM | 3.7 nM
18 | COc1cc2c(NS(=O)(=O)c3c(OC)cc(C4CC(F)CCN4C)cc3OC)noc2cc1Nc1cc(C2CC2)[nH]n1 (stereo not drawn) [Example 192, N-{6-[(5-cyclopropyl-1 H-pyrazol-3-yl)amino]-5-methoxy-1,2-benzoxazol-3-yl}-4-trans(4-fluoro-1-methylpiperidin-2-yl)-2,6-dimethoxybenzene-1-sulfonamide] | 22.2 nM | 2.4 nM
19 | COc1cc2c(NS(=O)(=O)c3c(OC)cc(C4CC(F)CCN4C)cc3OC)noc2cc1Nc1cc(C2CC2)[nH]n1 (stereo not drawn) [Example 193, N-{6-[(5-cyclopropyl-1 H-pyrazol-3-yl)amino]-5-methoxy-1,2-benzoxazol-3-yl}-4-trans(4-fluoro-1-methylpiperidin-2-yl)-2,6-dimethoxybenzene-1-sulfonamide] | 12 nM | 1.4 nM
20 | COc1cc2c(NS(=O)(=O)c3c(OC)cc(CN4CCC(OC)CC4)cc3OC)noc2cc1Nc1cc(C2CC2)n[nH]1 [Example 194, N-{6-[(3-cyclopropyl-1 H-pyrazol-5-yl)amino]-5-methoxy-1,2-benzoxazol-3-yl}-2,6-dimethoxy-4-[(4-methoxypiperidin-1-yl)methyl]benzene-1-sulfonamide] | 6.3 nM | 1.7 nM
21 | COc1cc2c(NS(=O)(=O)c3c(OC)cc(CN4CCC[C@H](C)C4)cc3OC)noc2cc1Nc1cc(C2CC2)n[nH]1 [Example 195, N-{6-[(3-cyclopropyl-1H-pyrazol-5-yl)amino]-5-methoxy-1,2-benzoxazol-3-yl}-2,6-dimethoxy-4-{[(3S)-3-methylpiperidin-1-yl]methyl}benzene-1-sulfonamide] | 18.9 nM | 2.5 nM
22 | COc1cc2c(NS(=O)(=O)c3c(OC)cc(CN4CCC(F)(F)C4)cc3OC)noc2cc1Nc1cc(C2CC2)n[nH]1 [Example 196, N-{6-[(3-cyclopropyl-1H-pyrazol-5-yl)amino]-5-methoxy-1,2-benzoxazol-3-yl}-4-[(3,3-difluoropyrrolidin-1-yl)methyl]-2,6-dimethoxybenzene-1-sulfonamide] | 4 nM | 0.9 nM
23 | COc1cc2c(NS(=O)(=O)c3c(OC)cc(CN4CCCC(F)(F)C4)cc3OC)noc2cc1Nc1cc(C2CC2)n[nH]1 [Example 199, N-{6-[(3-cyclopropyl-1H-pyrazol-5-yl)amino]-5-methoxy-1,2-benzoxazol-3-yl}-4-[(3,3-difluoropiperidin-1-yl)methyl]-2,6-dimethoxybenzene-1-sulfonamide] | 5.2 nM | 0.7 nM
24 | COc1cc2c(NS(=O)(=O)c3c(OC)cc(CN4CC(C)C4)cc3OC)noc2cc1Nc1cc(C2CC2)n[nH]1 [Example 200, N-{6-[(3-cyclopropyl-1 H-pyrazol-5-yl)amino]-5-methoxy-1,2-benzoxazol-3-yl}-2,6-dimethoxy-4-[(3-methylazetidin-1-yl)methyl]benzene-1-sulfonamide] | 17.2 nM | 2.1 nM
25 | COc1cc2c(NS(=O)(=O)c3c(OC)cc(CN4CC[C@@H](C(F)F)C4)cc3OC)noc2cc1Nc1cc(C2CC2)n[nH]1 [Example 204] | 4.9 nM | 1.1 nM
26 | COc1cc2c(NS(=O)(=O)c3c(OC)cc(CN4CCC(C(F)(F)F)C4)cc3OC)noc2cc1Nc1cc(C2CC2)n[nH]1 (centres unmarked) [Example 205, N-{6-[(3-cyclopropyl-1H-pyrazol-5-yl)amino]-5-methoxy-1,2-benzoxazol-3-yl}-2,6-dimethoxy-4-{[3-(trifluoromethyl)pyrrolidin-1-yl]methyl}benzene-1-sulfonamide] | 6 nM | 1.4 nM
27 | COc1cc2c(NS(=O)(=O)c3c(OC)cc(CN4CCCC4(C)C)cc3OC)noc2cc1Nc1cc(C2CC2)n[nH]1 [Example 206, N-{6-[(3-cyclopropyl-1H-pyrazol-5-yl)amino]-5-methoxy-1,2-benzoxazol-3-yl}-4-[(2,2-dimethylpyrrolidin-1-yl)methyl]-2,6-dimethoxybenzene-1-sulfonamide] | 28.8 nM | 4.4 nM
28 | COc1cc2c(NS(=O)(=O)c3c(OC)cc(-c4nccc(N(C)C)n4)cc3OC)noc2cc1Nc1cc(C2CC2)n[nH]1 [Example 216, N-{6-[(3-cyclopropyl-1H-pyrazol-5-yl)amino]-5-methoxy-1,2-benzoxazol-3-yl}-4-[4-(dimethylamino)pyrimidin-2-yl]-2,6-dimethoxybenzene-1-sulfonamide] | 1.6 nM | 0.2 nM
